Assay results published in US20230331675A1, “AROMATIC ETHYLENE COMPOUND AND PREPARATION METHOD THEREFOR, AND INTERMEDIATE, PHARMACEUTICAL COMPOSITION, AND APPLICATION THEREOF” (GUANGZHOU MAXINOVEL PHARMACEUTICALS CO., LTD., priority 2020, published 2023).

Assays:
PD-1/PD-L1 = PD-1/PD-L1 (Homo sapiens (Human), UniProt Q9NZQ7); assay: Homogeneous time-resolved fluorescence (HTRF) binding assay; conditions: CisBio kit, read-out: IC50 of compounds binding to PD-1/PD-L1
Description: Effect embodiment 1: Homogenouse time-resolved fluorescence
Homogeneous time-resolved fluorescence (HTRF) binding assay was used to determine the binding ability of the compound of the present disclosure to PD-1/PD-L1.
The purchased kit (CisBio, #64CUS000C-1) contained reagents required for assays such as PD-1, PD-L1, anti-tag1-Eu, Anti-tag2-XL665, dilute buffer, and detection buffer.
1. The compound was formulated to 10 concentrations with a 3-fold gradient with 100% DMSO.
2. The DMSO solution of the compound was added to the dilute buffer, mixed thoroughly, then transferred to a 96-well plate.
3. PD-L1 was diluted with dilute buffer, then added to the above 96-well plate.
4. PD-1 was diluted with dilute buffer and added to the above 96-well plate, which was then incubated at room temperature for 30 minutes.
5. A portion of anti-tag1-Eu and a portion of anti-tag2-XL665 were added to the detection buffer, mixed thoroughly and transferred to the above 96-well plate.
6. The mixture in the above 96-well plate was incubated at room temperature for 1 to 24 hours.
7. HTRF values were read with Envision.

[1] = Pharmacokinetic experiment in mice; type: in vivo; conditions: CD1 male mice, intravenous 2 mg/kg; for F: oral 10 mg/kg by gavage; for AUC(0-inf) / Cmax: mouse, plasma, oral 10 mg/kg by gavage (route of value not stated)
Description: Effect embodiment 2: Pharmacokinetic experiment in mice
Reagents: Acetonitrile, formic acid, methanol (HPLC grade) were purchased from Sigma-Aldrich (USA.), and pure water was purchased from Hangzhou Wahaha Group Co., Ltd. (Hangzhou, China). Other chemical reagents were all analytically pure reagents.
Experimental instruments: liquid chromatograph mass spectrometer (UPLC-MS/MS, composed of AB SCIEX TRIPLE QUAD 6500 triple quadrupole mass spectrometer, Shimadzu high performance liquid phase system. The Analyst 1.6.2 data acquisition and processing system was adopted).
Experimental animals: 6 CD1 male mice, 29-30 g before administration, were purchased from Shanghai Jihui Experimental Animal Breeding Co., Ltd., and the animal certificate number is SCXK(SH) 2017-0012 20170012001403. Before the experiment, the animals should be kept for at least 3 days to adapt to the environment. Throughout the experiment, the animals had free access to food and water.
1) Preparation of a mother liquor: A certain amount of the test drug was weighed in a clean sample bottle, then dimethyl sulfoxide was added, vortexed thoroughly for 1 min, and sonicated for 5 min to give a 4 mg/mL solution.
Drug preparation for intravenous administration: A certain amount of the above solution was taken and placed in a clean sample bottle, then polyethylene glycol-15 hydroxystearate was added, vortexed thoroughly for 1 min, then normal saline was added, and the mixture was continued vortexing for 1 min to give […] solution A.
Drug preparation for oral administration: A certain amount of the test drug was weighed and placed in a clean sample bottle, then a pre-prepared vehicle “10% (w/v) polyoxyethylene 40 hydrogenated castor+20% (w/v) sulfobutyl ether β-cyclodextrin+70% water” was added, vortexed thoroughly for 1 min, magnetically stirred for 20-25 min, and sonicated for 10 min to give 1 mg/mL solution B.
2) Intravenous administration: 3 mice were injected with 2 mg/kg (5 mL/kg) solution A through the tail vein.
Oral administration: 3 mice were given 10 mg/kg (10 mL/kg) solution B by gavage.
3) Collection and storage of plasma samples: Blood samples were collected from the orbital venous plexus of mice according to predetermined time points (5 minutes, 15 minutes, 30 minutes, 1 hour, 2 hours, 4 hours, 8 hours and 24 hours). 25 μL of blood was placed in EDTA-K2 anticoagulant tubes (placed on wet ice), and 20 μL of blood was immediately diluted with 60 μL of water and vortexed until evenly mixed. Plasma was stored in a −70° C. refrigerator for long-term storage until sample analysis.
4) Analysis of plasma samples: 200 μL of acetonitrile (containing 100 ng/mL internal standard) was added to 25 μL of plasma sample, vortexed for 10 minutes, and centrifuged at 5800 rpm for 10 minutes. 70 μL of supernatant was transferred to a 96-well injection plate. 1 μL of plasma sample was analyzed by LC-MS/MS.
5) The pharmacokinetic parameters were calculated according to the test results.

Sequence of PD-1/PD-L1 (Q9NZQ7 19-238): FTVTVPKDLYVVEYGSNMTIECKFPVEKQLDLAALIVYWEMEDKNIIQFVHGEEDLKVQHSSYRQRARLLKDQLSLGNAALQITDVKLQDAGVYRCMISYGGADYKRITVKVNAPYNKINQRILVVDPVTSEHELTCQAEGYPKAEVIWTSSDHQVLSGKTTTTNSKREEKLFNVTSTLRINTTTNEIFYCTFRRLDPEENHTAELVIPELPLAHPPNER

`COc1cc(/C=C(\Br)c2cccc(-c3ccccc3)c2C)c(C)cc1CNCCO` [Compound 69, (Z)-2-((4-(2-Bromo-2-(2-methyl-[1,1′-biphenyl]-3-yl)vinyl)-2-methoxy-5-methylbenzyl)amino)-1-ethanol] gave an IC50 (PD-1/PD-L1) of 260 nM.

Compound `COc1cc(/C=C/c2cccc(-c3ccccc3)c2C)c(C)cc1CN1CCCC[C@H]1C(=O)O` [Compound 70, (S,E)-1-(2-Methoxy-5-methyl-4-(2-(2-methyl-[1,1′-biphenyl]-3-yl)vinyl)benzyl)piperidine-2-carboxylic acid] has an IC50 (PD-1/PD-L1) of 9.31 nM.

With `COc1cc(/C=C/c2cccc(-c3ccccc3)c2Cl)c(C(F)(F)F)cc1CN1CCCC[C@H]1C(=O)O` [Compound 71, (S,E)-1-(4-(2-(2-Chloro-[1,1′-biphenyl]-3-yl)vinyl)-2-methoxy-5-trifluoromethylbenzyl)piperidine-2-carboxylic acid] the IC50 (PD-1/PD-L1) was 0.68 nM.

`COc1cc(/C=C/c2cccc(-c3ccccc3)c2CF)c(C(F)(F)F)cc1CN1CCCC[C@H]1C(=O)O` [Compound 73, (S,E)-1-(4-(2-(2-Fluoromethyl-[1,1′-biphenyl]-3-yl)vinyl)-2-methoxy-5-trifluoromethylbenzyl)piperidine-2-carboxylic acid] showed an IC50 (PD-1/PD-L1) of 3.99 nM.

`COc1cc(/C=C/c2cccc(-c3ccccc3)c2CF)c(C(F)(F)F)cc1CNCCO` [Compound 74, (E)-2-((4-(2-(2-Fluoromethyl-[1,1′-biphenyl]-3-yl)vinyl)-2-methoxy-5-trifluoromethylbenzyl)amino)-1-ethanol] gave an IC50 (PD-1/PD-L1) of 7.09 nM.

For `Cc1c(/C=C/c2cc(OCc3cccc(I)c3)c(CN3CCCC[C@H]3C(=O)O)cc2C(F)(F)F)cccc1-c1ccccc1` [Compound 77], the IC50 (PD-1/PD-L1) was 5.91 nM.

With `Cc1c(/C=C/c2cc(OCc3ccc(I)cc3)c(CN3CCCC[C@H]3C(=O)O)cc2C(F)(F)F)cccc1-c1ccccc1` [Compound 78] the IC50 (PD-1/PD-L1) was 65.5 nM.

In the case of `Cc1cc(CN2CCCC[C@H]2C(=O)O)c(OCc2cc(I)ccn2)cc1/C=C/c1cccc(-c2ccccc2)c1C` [Compound 79, (S,E)-1-(2-((4-Iodo-pyridin-2-yl)methoxy)-5-methyl-4-(2-(2-methyl-[1,1′-biphenyl]-3-yl)vinyl)benzyl)piperidine-2-carboxylic acid], the IC50 (PD-1/PD-L1) is reported as 5.31 nM.

`Cc1c(/C=C/c2cc(OCc3cc(I)ccn3)c(CN3CCCC[C@H]3C(=O)O)cc2C(F)(F)F)cccc1-c1ccccc1` [Compound 80, (S,E)-1-(2-((4-Iodopyridin-2-yl)methoxy)-4-(2-(2-methyl-[1,1′-biphenyl]-3-yl)vinyl)-5-(trifluoromethyl)benzyl)piperidine-2-carboxylic acid] showed an IC50 (PD-1/PD-L1) of 3.97 nM.

With `Cc1c(/C=C/c2cc(OCc3ccnc(I)c3)c(CN3CCCC[C@H]3C(=O)O)cc2C(F)(F)F)cccc1-c1ccccc1` [Compound 81, (S,E)-1-(2-((2-Iodopyridin-4-yl)methoxy)-4-(2-(2-methyl-[1,1′-biphenyl]-3-yl)vinyl)-5-(trifluoromethyl)benzyl)piperidine-2-carboxylic acid] the IC50 (PD-1/PD-L1) was 2.13 nM.

With `Cc1c(/C=C/c2cc(OCc3cncc(I)c3)c(CN3CCCC[C@H]3C(=O)O)cc2C(F)(F)F)cccc1-c1ccccc1` [Compound 82, (S,E)-1-(2-((5-Iodopyridin-3-yl)methoxy)-4-(2-(2-methyl-[1,1′-biphenyl]-3-yl)vinyl)-5-(trifluoromethyl)benzyl)piperidine-2-carboxylic acid] the IC50 (PD-1/PD-L1) was 1.85 nM.

`Cc1cc(CN2CCCC[C@H]2C(=O)O)c(OCCCCF)cc1/C=C/c1cccc(-c2ccccc2)c1C` [Compound 83, (S,E)-1-(2-(4-Fluorobutoxy)-5-methyl-4-(2-(2-methyl-[1,1′-biphenyl]-3-yl)vinyl)benzyl)piperidine-2-carboxylic acid] gave an IC50 (PD-1/PD-L1) of 6.99 nM.

Work on `Cc1cc(CN2CCCC[C@H]2C(=O)O)c(OCCCF)cc1/C=C/c1cccc(-c2ccccc2)c1C` [Compound 84, (S,E)-1-(2-(3-Fluoropropoxy)-5-methyl-4-(2-(2-methyl-[1,1′-biphenyl]-3-yl)vinyl)benzyl)piperidine-2-carboxylic acid] yielded an IC50 (PD-1/PD-L1) of 8.03 nM.

For `Cc1c(/C=C/c2cc(OCCCCF)c(CN3CCCC[C@H]3C(=O)O)cc2C(F)(F)F)cccc1-c1ccccc1` [Compound 85, (S,E)-1-(2-(4-Fluorobutoxy)-4-(2-(2-methyl-[1,1′-biphenyl]-3-yl)vinyl)-5-(trifluoromethyl)benzyl)piperidine-2-carboxylic acid], the IC50 (PD-1/PD-L1) was 4.34 nM.

With `Cc1c(/C=C/c2cc(OCCCF)c(CN3CCCC[C@H]3C(=O)O)cc2C(F)(F)F)cccc1-c1ccccc1` [Compound 86, (S,E)-1-(2-(3-Fluoropropoxy)-4-(2-(2-methyl-[1,1′-biphenyl]-3-yl)vinyl)-5-(trifluoromethyl)benzyl)piperidine-2-carboxylic acid] the IC50 (PD-1/PD-L1) was 3.58 nM.

`Cc1c(/C=C/c2cc(OCCF)c(CN3CCCC[C@H]3C(=O)O)cc2C(F)(F)F)cccc1-c1ccccc1` [Compound 87, (S,E)-1-(2-(2-Fluoroethoxy)-4-(2-(2-methyl-[1,1′-biphenyl]-3-yl)vinyl)-5-(trifluoromethyl)benzyl)piperidine-2-carboxylic acid] gave an IC50 (PD-1/PD-L1) of 2.8 nM.

With `COc1cc(/C=C/c2cccc(-c3ccccc3)c2C)c(C(F)(F)F)cc1CN1CCCC[C@H]1C(=O)O` [drawing 201] the F [1] was 72.4%, the AUC(0-inf) [1] was 40600 ng·h/mL and the Cmax [1] was 1870 ng/mL.

In the case of `COc1cc(/C=C/c2cccc(-c3ccccc3)c2C#N)c(C(F)(F)F)cc1CN1CCCC[C@H]1C(=O)O` [drawing 203], the F [1] is reported as 69.7%, the AUC(0-inf) [1] is reported as 7620 ng·h/mL and the Cmax [1] is reported as 1400 ng/mL.

In the case of `Cc1cc(/C=C/c2cccc(-c3ccccc3)c2C#N)c(Cl)cc1CN1CCCC[C@H]1C(=O)O` [drawing 205], the F [1] is reported as 80.6%, the AUC(0-inf) [1] is reported as 16800 ng·h/mL and the Cmax [1] is reported as 2130 ng/mL.

Compound `COc1cc(/C=C/c2nccc(-c3ccccc3)c2C)c(C(F)(F)F)cc1CN1CCCC[C@H]1C(=O)O` [reference compound] has an F [1] of 23.6%, an AUC(0-inf) [1] of 2300 ng·h/mL and a Cmax [1] of 673 ng/mL.

Work on `COc1cc(/C=C/c2nccc(-c3ccccc3)c2C#N)c(C(F)(F)F)cc1CN1CCCC[C@H]1C(=O)O` [reference compound] yielded an F [1] of 16.4%, an AUC(0-inf) [1] of 1000 ng·h/mL and a Cmax [1] of 254 ng/mL.

`Cc1cc(/C=C/c2nccc(-c3ccccc3)c2C#N)c(Cl)cc1CN1CCCC[C@H]1C(=O)O` [reference compound] gave an F [1] of 74.1%, an AUC(0-inf) [1] of 8580 ng·h/mL and a Cmax [1] of 1260 ng/mL.

With “(S,E)-1-(2-((3-Iodobenzyloxy)-5-methyl-4-(2-(2-methyl-[1,1′-biphenyl]-3-yl)vinyl)benzyl)piperidine-2-carboxylic acid [Compound 75]” the IC50 (PD-1/PD-L1) was 28.4 nM.

“(S,E)-1-(2-Methoxy-4-(2-(2-methyl-d3)-[1,1′-biphenyl]-3-yl)vinyl)-5-trifluoromethylbenzyl)piperidine-2-carboxylic acid [Compound 51]” showed an IC50 (PD-1/PD-L1) of 2.2 nM.

For “(S,E)-2-((5-Chloro-2-(2-(2-cyano-[1,1′-biphenyl]-3-yl)vinyl)-4-(3-methylsulfonyl)propoxy)benzyl)amino)-3-hydroxy-2-methylpropionic acid [Compound 38]”, the IC50 (PD-1/PD-L1) was 298 nM.
